Data from article PMC12320284, “Biochemical and biological evaluation of L-glutaminase from Aspergillus tamarii AUMC 10198 via solid-state fermentation” (Microbial Cell Factories, 2025).

Test system: T1, L-glutaminase (Aspergillus tamarii AUMC 10198)
T1 construct: gene gtaA; approx. 62 kDa by SDS-PAGE, single band
Assay: Nesslerization ammonia assay, […] nm; Lineweaver-Burk plot
Format: biochemical
Details: standard assay conditions (0.1 M citrate-phosphate pH 7, 30 °C, 30 min as described for the crude enzyme); 0.2-2.0 mg/ml L-glutamine; apparent Km

SMILES: NC(=O)CC[C@H](N)C(=O)O [L-glutamine]
- Km: 0.28 mg/mL
